In US7541352B2, “Compounds for the treatment of hepatitis C” (Bristol-Myers Squibb Company, priority 2007, dated 2009):
Like-named read-outs stand apart in the source and are kept apart here.

Columns and labels:
[1] = target: T1, HCV NS5B RdRp genotype 1b (Hepatitis C virus genotype 1b, UniProt Q9WMX2); experiment: Modified HCV NS5B RdRp enzyme assay (preincubation protocol); format: biochemical
T1 construct: The protein was expressed with an 18 amino acid C-terminal truncation to enhance the solubility; made in house; host or cells: E. coli BL21(DE3), pET21a
Protocol: HCV NS5B RdRp cloning, expression, and purification. The cDNA encoding the NS5B protein of HCV, genotype 1b, was cloned into the pET21a expression vector. The protein was expressed with an 18 amino acid C-terminal truncation to enhance the solubility. The E. coli competent cell line BL21(DE3) was used for expression of the protein. Cultures were grown at 37° C. for ˜4 hours until the cultures reached an optical density of 2.0 at 600 nm. The cultures were cooled to 20° C. and induced with 1 mM IPTG. Fresh ampicillin was added to a final concentration of 50 μg/ml and the cells were grown overnight at 20° C.
Cell pellets (3 L) were lysed for purification to yield 15-24 mgs of purified NS5B. The lysis buffer consisted of 20 mM Tris-HCl, pH 7.4, 500 mM NaCl, 0.5% triton X-100, 1 mM DTT, 1 mM EDTA, 20% glycerol, 0.5 mg/ml lysozyme, 10 mM MgCl2, 15 ug/ml deoxyribonuclease I, and Complete TM protease inhibitor tablets (Roche). After addition of the lysis buffer, frozen cell pellets were resuspended using a tissue homogenizer. To reduce the viscosity of the sample, aliquots of the lysate were sonicated on ice using a microtip attached to a Branson sonicator. The sonicated lysate was centrifuged at 100,000×g for 1 hr at 4° C. and filtered through a 0.2 μm filter unit (Corning).
The protein was purified using two sequential chromatography steps: Heparin sepharose CL-6B and polyu sepharose 4B (Pharmacia). The chromatography buffers were identical to the lysis buffer but contained no lysozyme, deoxyribonuclease I, MgCl2 or protease inhibitor and the NaCl concentration of the buffer was adjusted according to the requirements for charging the protein onto the column. Each column was eluted with a NaCl gradient which varied in length from 5-50 column volumes depending on the column type. After the final chromatography step, the resulting purity of the enzyme is >90% based on SDS-PAGE analysis. The enzyme was aliquoted and stored at −80° C.
Standard HCV NS5B RdRp enzyme assay. HCV RdRp genotype 1b assays were run in a final volume of 60 μl in 96 well plates (Corning 3600). The assay buffer is composed of 20 mM Hepes, pH 7.5, 2.5 mM KCl, 2.5 mM MgCl2, 1 mM DTT, 1.6 U RNAse inhibitor (Promega N2515), 0.01 mg/ml BSA (Sigma B6917), and 2% glycerol. All compounds were serially diluted (3-fold) in DMSO and diluted further in water such that the final concentration of DMSO in the assay was 2%. HCV RdRp genotype 1b enzyme was used at a final concentration of 28 nM. A polyA template was used at 6 nM, and a biotinylated oligo-dT 12 primer was used at 180 nM final concentration. Template was obtained commercially (Amersham 27-4110). Biotinylated primer was prepared by Sigma Genosys. 3H-UTP was used at 0.6 μCi (0.29 μM total UTP). Reactions were initiated by the addition of enzyme, incubated at 30° C. for 60 min, and stopped by adding 25 μl of 50 mM EDTA containing SPA beads (4 μg/μl, Amersham RPNQ 0007). Plates were read on a Packard Top Count NXT after >1 hr incubation at room temperature.
Modified HCV NS5B RdRp enzyme assay. A modified enzyme assay was performed essentially as described for the standard enzyme assay except for the following: The biotinylated oligo dT12 primer was precaptured on streptavidin-coated SPA beads by mixing primer and beads in assay buffer and incubating at room temperature for one hour. Unbound primer was removed after centrifugation. The primer-bound beads were resuspended in 20 mM Hepes buffer, pH 7.5 and used in the assay at final concentrations of 20 nM primer and 0.67 μg/μl beads. Order of addition in the assay: enzyme (1.75 nM) was added to diluted compound followed by the addition of a mixture of template (0.36 nM), 3H-UTP (0.6 μCi, 0.29 μM), and primer-bound beads, to initiate the reaction; concentrations given are final. Reactions were allowed to proceed for 4 hours at 30° C.
IC50 values for compounds were determined using seven different [I]. […]

HCV replicon cells = experiment: HCV replicon FRET assay; format: cell-based; details: Hepatitis C virus
Protocol: FRET Assay Preparation. The HCV FRET screening assay was performed in 96-well cell culture plates. The FRET peptide (Anaspec, Inc.) (Taliani et al., Anal. Biochem. 1996, 240, 60-67) contains a fluorescence donor, EDANS, near one end of the peptide and an acceptor, DABCYL, near the other end. The fluorescence of the peptide is quenched by […] resonance energy transfer (RET) between the donor and the acceptor, but as the NS3 protease cleaves the peptide the products are released from RET quenching and the fluorescence of the donor becomes apparent. The assay reagent was made as follows: 5× cell Luciferase cell culture lysis reagent from Promega (#E153A) diluted to 1× with dH2O, NaCl added to 150 mM final, the FRET peptide diluted to 20 μM final from a 2 mM stock.
To prepare plates, HCV replicon cells, with or without a Renilla luciferase reporter gene, were trypsinized and plated in a 96-well plate with titrated test compounds added in columns 3 through 12; columns 1 and 2 contained a control compound (HCV control inhibitor), and the bottom row contained cells with DMSO only. The plates were then placed in a CO2 incubator at 37° C.
Assays. Subsequent to addition of the test compounds described above (FRET Assay Preparation), at various times the plate was removed and Alamar blue solution (Trek Diagnostics, #00-100) was added to measure cellular toxicity. After reading in a Cytoflour 4000 instrument (PE Biosystems), plates were rinsed with PBS and then used for FRET assay by the addition of 30 ul of the FRET peptide assay reagent described above (FRET Assay Preparation) per well. The plate was then placed into the Cytoflour 4000 instrument which had been set to 340 excite/490 emission, automatic mode for up to 20 cycles and the plate read in a kinetic mode. Typically, the signal to noise using an endpoint analysis after the reads was at least three-fold. Alternatively, after Alamar blue reading, plates were rinsed with PBS, then used for luciferase assay using the Promega Dual-Glo Luciferase Assay System or the Promega EnduRen Live Cell Substrate assay.
Compound analysis was performed by quantification of the relative HCV replicon inhibition and the relative cytotoxicity values. To calculate cytoxicity values, the average Alamar Blue fluorescence signals from the control wells were set as 100% non-toxic. The individual signals in each of the compound test wells were then divided by the average control signal and multiplied by 100% to determine […]. To calculate the HCV replicon inhibition values, an average background value was obtained from the two wells containing the highest amount of HCV control inhibitor at the end of the assay period. These numbers were similar to those obtained from naïve Huh-7 cells. The background numbers were then subtracted from the average signal obtained from the control wells and this number was used as 100% activity. The individual signals in each of the compound test wells were then divided by the averaged control values after background subtraction and multiplied by 100% to determine percent activity. EC50 values were calculated as the concentration which caused a 50% reduction in FRET or luciferase activity. The two numbers generated for the compound plate, percent cytoxicity and percent activity, were used to determine compounds of interest for further analysis.

[2] = HCV NS5B RdRp, determined using the preincubation protocol, read-out: IC50
[3] = HCV replicon cells, determined using the FRET assay, read-out: EC50

T1 sequence (Q9WMX2 2420-2992): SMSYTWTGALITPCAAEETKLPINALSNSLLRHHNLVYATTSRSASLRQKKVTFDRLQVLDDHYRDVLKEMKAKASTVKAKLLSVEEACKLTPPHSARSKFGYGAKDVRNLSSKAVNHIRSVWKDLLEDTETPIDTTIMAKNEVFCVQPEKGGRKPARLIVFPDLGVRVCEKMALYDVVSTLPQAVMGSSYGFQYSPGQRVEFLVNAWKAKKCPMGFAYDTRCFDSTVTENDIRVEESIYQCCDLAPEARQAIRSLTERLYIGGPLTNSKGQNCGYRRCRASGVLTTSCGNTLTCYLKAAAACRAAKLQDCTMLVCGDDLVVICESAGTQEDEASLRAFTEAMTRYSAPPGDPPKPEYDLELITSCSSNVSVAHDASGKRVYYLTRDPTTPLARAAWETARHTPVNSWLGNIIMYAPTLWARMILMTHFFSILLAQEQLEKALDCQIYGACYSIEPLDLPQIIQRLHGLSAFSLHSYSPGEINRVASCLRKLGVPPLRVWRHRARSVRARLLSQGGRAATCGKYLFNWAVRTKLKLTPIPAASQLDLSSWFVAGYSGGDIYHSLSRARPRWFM

Compound	IC50 [1]	EC50 (HCV replicon cells)	IC50 [1, 2]	EC50 (HCV replicon cells; [3])
COc1ccc2c(c1)[C@@H]1C[C@]1(NC(=O)N1C3CCC1CN(C)C3)Cn1c-2c(C2CCCCC2)c2ccc(C(=O)NS(=O)(=O)N(C)C)cc21	1 to 500 nM	1 to 500 nM		
COc1ccc2c(c1)C1CC1(NC(=O)C(=O)N1C[C@@H](C)N(C)[C@@H](C)C1)Cn1c-2c(C2CCCCC2)c2ccc(C(=O)NS(=O)(=O)N(C)C)cc21 (stereo partly drawn)			1 to 500 nM	1 to 500 nM
COc1ccc2c(c1)C1CC1(NC(=O)C(=O)N1CCOCC1)Cn1c-2c(C2CCCCC2)c2ccc(C(=O)NS(=O)(=O)N(C)C)cc21 (stereo not drawn)			1 to 500 nM	1 to 500 nM
COc1ccc2c(c1)[C@@H]1C[C@]1(NC(=O)C(=O)N(C)C)Cn1c-2c(C2CCCCC2)c2ccc(C(=O)NS(=O)(=O)N(C)C)cc21 [drawing 40]			1 to 500 nM	1 to 500 nM
COc1ccc2c(c1)C1CC1(NC(=O)C(=O)N1CC(OC)C1)Cn1c-2c(C2CCCCC2)c2ccc(C(=O)NS(=O)(=O)N(C)C)cc21 (stereo not drawn)			1 to 500 nM	1 to 500 nM
COc1ccc2c(c1)C1CC1(NC(=O)N1C3CCC1CN(C)C3)Cn1c-2c(C2CCCCC2)c2ccc(C(=O)NS(=O)(=O)N(C)C)cc21 (stereo not drawn)	1 to 500 nM	1 to 500 nM		
COc1ccc(S(=O)(=O)NC23CC2c2cc(OC)ccc2-c2c(C4CCCCC4)c4ccc(C(=O)NS(=O)(=O)N(C)C)cc4n2C3)c(OC)c1 (stereo not drawn)			1 to 500 nM	1 to 500 nM
COc1ccc2c(c1)CC(NC(=O)C(=O)N1C3CCC1CN(C)C3)Cn1c-2c(C2CCCCC2)c2ccc(C(=O)NS(=O)(=O)N(C)C)cc21 (stereo not drawn)	1 to 500 nM	1 to 500 nM		
COc1ccc2c(c1)CC(NC(=O)C(=O)N(C)C)Cn1c-2c(C2CCCCC2)c2ccc(C(=O)NS(=O)(=O)N(C)C)cc21 (stereo not drawn)			1 to 500 nM	1 to 500 nM
COc1ccc2c(c1)C1CC1(NS(=O)(=O)C1CCN(C(=O)OCc3ccccc3)CC1)Cn1c-2c(C2CCCCC2)c2ccc(C(=O)NS(=O)(=O)N(C)C)cc21 (stereo not drawn)			1 to 500 nM	1 to 500 nM
COc1ccc2c(c1)C1CC1(NS(=O)(=O)N1CCOCC1)Cn1c-2c(C2CCCCC2)c2ccc(C(=O)NS(=O)(=O)N(C)C)cc21 (stereo not drawn)			1 to 500 nM	1 to 500 nM
COc1ccc2c(c1)[C@@H]1C[C@]1(NC(=O)C(=O)N1C[C@@H](C)O[C@@H](C)C1)Cn1c-2c(C2CCCCC2)c2ccc(C(=O)NS(=O)(=O)N(C)C)cc21 [drawing 43]			1 to 500 nM	1 to 500 nM
COc1ccc2c(c1)C1C[C@@]1(NC(=O)C(=O)N(C)C)Cn1c-2c(C2CCCCC2)c2ccc(C(=O)NS(=O)(=O)N(C)C)cc21 (stereo partly drawn) [drawing 37]				1 to 500 nM
COc1ccc2c(c1)C1CC1(NC(=O)C(=O)N(C)C)Cn1c-2c(C2CCCCC2)c2ccc(C(=O)NS(=O)(=O)C(C)C)cc21 (stereo not drawn)			1 to 500 nM	1 to 500 nM
COc1ccc2c(c1)C1CC1(NC(=O)C(=O)N1CCN3CCC1CC3)Cn1c-2c(C2CCCCC2)c2ccc(C(=O)NS(=O)(=O)N(C)C)cc21 (stereo not drawn)			1 to 500 nM	1 to 500 nM
COc1ccc2c(c1)[C@H]1C[C@@]1(NC(=O)C(=O)N(C)C)Cn1c-2c(C2CCCCC2)c2ccc(C(=O)NS(=O)(=O)N(C)C)cc21 [drawing 37]			1 to 500 nM	
COc1ccc2c(c1)C1CC1(NC(=O)C(=O)N1CCCC1)Cn1c-2c(C2CCCCC2)c2ccc(C(=O)NS(=O)(=O)N(C)C)cc21 (stereo not drawn) [drawing 32]			1 to 500 nM	1 to 500 nM
Cc1ccc2c(c1)C1CC1(NC(=O)C(=O)N(C)C)Cn1c-2c(C2CCCCC2)c2ccc(C(=O)NS(=O)(=O)C3CCC3)cc21 (stereo not drawn)			1 to 500 nM	1 to 500 nM
COc1ccc2c(c1)[C@@H]1C[C@]1(NC(=O)C(=O)N1CCOCC1c1ccccc1)Cn1c-2c(C2CCCCC2)c2ccc(C(=O)NS(=O)(=O)N(C)C)cc21 (stereo partly drawn)			1 to 500 nM	1 to 500 nM
COc1ccc2c(c1)C1CC1(NC(=O)C(=O)N(C)C)Cn1c-2c(C2CCCCC2)c2ccc(C(=O)NS(=O)(=O)CC(C)(C)C)cc21 (stereo not drawn)			1 to 500 nM	1 to 500 nM
COc1ccc2c(c1)C1CC1(NC(=O)N1CC3CN(Cc4ccccc4)CC(C1)N3Cc1ccccc1)Cn1c-2c(C2CCCCC2)c2ccc(C(=O)NS(=O)(=O)N(C)C)cc21 (stereo not drawn)	1 to 500 nM			
